The text below walks through data of patent US6355631B1, “Pharmaceutical compositions containing azetidine derivatives, novel azetidine derivatives and their preparation” (Aventis Pharma S.A., priority 2000, dated 2002).

Structures are written as SMILES.

`O=[SH](=O)N(Cc1ccccc1)CC1CN(C(c2ccc(Cl)cc2)c2ccc(Cl)cc2)C1` [Example 23, N-Benzyl-N-{1-[bis(4-chlorophenyl)methyl]azetidin-3-yl}methylsulfonamide] showed a melting point of 171 °C.
In the case of `O=[SH](=O)N(Cc1cc(F)cc(F)c1)C1CN(C(c2ccc(F)cc2)c2ccc(F)cc2)C1` [Example 34, N-{1-[Bis(4-fluorophenyl)methyl]azetidin-3-yl}-N-(3,5-difluorophenyl)methylsulfonamide] it was 98 °C.

For orientation: melting point means the temperature, or range, at which the solid turns liquid.
